Measurements published in US7214690B2, “Tricyclic quinolinone and tricyclic quinoline androgen receptor modulator compounds and methods” (Ligand Pharmaceuticals Incorporated, priority 2001, dated 2007).

How the values were obtained:
Format in all cases: cell-based
GR = target: T1, GR (Homo sapiens, UniProt P04150); test: co-transfection assay, GR
T1 construct: expressed in transfected cells; host or cells: background cell substantially devoid of endogenous IRs (CV-1 described for the co-transfection assay)
T1 sequence (P04150 1-777): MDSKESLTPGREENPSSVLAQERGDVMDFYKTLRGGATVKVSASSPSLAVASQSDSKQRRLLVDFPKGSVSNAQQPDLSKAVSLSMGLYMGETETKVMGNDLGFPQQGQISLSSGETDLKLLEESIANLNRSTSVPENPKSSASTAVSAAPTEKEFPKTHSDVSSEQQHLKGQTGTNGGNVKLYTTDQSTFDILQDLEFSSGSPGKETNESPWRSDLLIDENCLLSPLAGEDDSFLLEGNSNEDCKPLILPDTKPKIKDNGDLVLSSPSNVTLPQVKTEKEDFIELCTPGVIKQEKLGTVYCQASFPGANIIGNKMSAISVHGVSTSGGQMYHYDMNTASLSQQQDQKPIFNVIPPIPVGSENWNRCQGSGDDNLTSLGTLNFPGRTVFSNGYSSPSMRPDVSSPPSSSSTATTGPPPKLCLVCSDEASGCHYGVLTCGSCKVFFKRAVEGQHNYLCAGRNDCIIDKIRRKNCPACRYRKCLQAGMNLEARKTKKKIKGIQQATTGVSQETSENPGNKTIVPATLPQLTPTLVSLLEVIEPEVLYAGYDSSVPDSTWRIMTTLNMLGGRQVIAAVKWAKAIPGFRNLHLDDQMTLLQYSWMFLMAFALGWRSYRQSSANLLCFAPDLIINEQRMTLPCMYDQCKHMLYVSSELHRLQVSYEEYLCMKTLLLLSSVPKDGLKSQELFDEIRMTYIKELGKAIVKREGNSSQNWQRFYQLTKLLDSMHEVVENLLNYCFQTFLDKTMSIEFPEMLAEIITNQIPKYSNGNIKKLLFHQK
Description: (§1) CV-1 cells (African green monkey kidney fibroblasts) were cultured in the presence of Dulbecco's Modified Eagle Medium (DMEM) supplemented with 10% charcoal resin-stripped fetal bovine serum (CH-FBS) then transferred to 96-well microtiter plates one day prior to transfection.
(§2) Three to four replicates were used for each sample.
(§3) After 40 hours, the cells were washed with PBS, lysed with a Triton X-100-based buffer and assayed for LUC and β-Gal activities using a luminometer or spectrophotometer, respectively. For each replicate, the normalized response (NR) was calculated as: LUC response/β-Gal rate • where β-Gal rate=β-Gal/β-Gal incubation time.

ER = target: T2, ER (Homo sapiens, UniProt P03372); test: co-transfection assay, ER
T2 construct: expressed in transfected cells; host or cells: background cell substantially devoid of endogenous IRs (CV-1 described for the co-transfection assay)
T2 sequence (P03372 1-595): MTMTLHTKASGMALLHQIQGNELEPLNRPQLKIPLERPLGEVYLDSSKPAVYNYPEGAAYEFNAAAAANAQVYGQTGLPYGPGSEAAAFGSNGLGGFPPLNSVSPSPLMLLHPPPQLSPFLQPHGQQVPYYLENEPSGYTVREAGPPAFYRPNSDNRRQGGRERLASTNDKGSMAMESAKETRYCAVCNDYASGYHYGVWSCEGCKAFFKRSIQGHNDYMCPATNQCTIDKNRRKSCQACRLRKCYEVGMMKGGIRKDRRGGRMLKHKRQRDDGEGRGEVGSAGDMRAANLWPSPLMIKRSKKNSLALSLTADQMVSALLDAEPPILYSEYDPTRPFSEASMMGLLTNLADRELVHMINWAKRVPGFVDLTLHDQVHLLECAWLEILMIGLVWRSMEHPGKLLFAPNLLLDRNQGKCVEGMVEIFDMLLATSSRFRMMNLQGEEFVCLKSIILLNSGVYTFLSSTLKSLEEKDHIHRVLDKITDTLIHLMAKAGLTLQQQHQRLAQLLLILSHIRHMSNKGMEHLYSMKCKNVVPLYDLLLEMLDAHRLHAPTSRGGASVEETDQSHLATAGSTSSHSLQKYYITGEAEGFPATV
Description: as §1, §2, §3

PR = target: T3, PR (Homo sapiens, UniProt P06401); test: co-transfection assay, PR
T3 construct: expressed in transfected cells; host or cells: background cell substantially devoid of endogenous IRs (CV-1 described for the co-transfection assay)
T3 sequence (P06401 1-933): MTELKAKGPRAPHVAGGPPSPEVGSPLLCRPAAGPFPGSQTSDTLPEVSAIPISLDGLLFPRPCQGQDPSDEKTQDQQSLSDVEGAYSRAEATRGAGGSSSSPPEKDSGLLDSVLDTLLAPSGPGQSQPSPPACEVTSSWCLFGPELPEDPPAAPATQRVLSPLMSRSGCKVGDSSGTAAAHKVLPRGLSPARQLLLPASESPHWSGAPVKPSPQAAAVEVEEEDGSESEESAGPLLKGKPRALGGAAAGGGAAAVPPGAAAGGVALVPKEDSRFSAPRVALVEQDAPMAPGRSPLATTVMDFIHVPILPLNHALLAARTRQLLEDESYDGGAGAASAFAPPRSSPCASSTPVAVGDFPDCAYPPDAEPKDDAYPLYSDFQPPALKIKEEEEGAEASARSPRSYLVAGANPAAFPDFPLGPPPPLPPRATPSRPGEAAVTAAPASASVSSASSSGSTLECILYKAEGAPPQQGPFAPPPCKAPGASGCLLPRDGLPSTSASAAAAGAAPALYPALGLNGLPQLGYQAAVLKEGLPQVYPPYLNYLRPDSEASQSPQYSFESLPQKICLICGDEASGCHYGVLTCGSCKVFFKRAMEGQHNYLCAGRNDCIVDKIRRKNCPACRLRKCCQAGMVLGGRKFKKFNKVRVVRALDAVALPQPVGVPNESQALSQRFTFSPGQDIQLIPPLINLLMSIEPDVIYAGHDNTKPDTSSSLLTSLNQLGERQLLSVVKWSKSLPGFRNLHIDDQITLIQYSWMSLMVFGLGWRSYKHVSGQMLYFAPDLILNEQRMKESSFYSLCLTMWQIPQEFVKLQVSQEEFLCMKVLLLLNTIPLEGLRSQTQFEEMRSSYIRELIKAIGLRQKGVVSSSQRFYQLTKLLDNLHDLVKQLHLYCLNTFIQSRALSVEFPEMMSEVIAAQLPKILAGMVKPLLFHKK
Description: as §1, §2, §3

MR = target: T4, MR (Homo sapiens, UniProt P08235); test: co-transfection assay, MR
T4 construct: expressed in transfected cells; host or cells: background cell substantially devoid of endogenous IRs (CV-1 described for the co-transfection assay)
T4 sequence (P08235 1-984): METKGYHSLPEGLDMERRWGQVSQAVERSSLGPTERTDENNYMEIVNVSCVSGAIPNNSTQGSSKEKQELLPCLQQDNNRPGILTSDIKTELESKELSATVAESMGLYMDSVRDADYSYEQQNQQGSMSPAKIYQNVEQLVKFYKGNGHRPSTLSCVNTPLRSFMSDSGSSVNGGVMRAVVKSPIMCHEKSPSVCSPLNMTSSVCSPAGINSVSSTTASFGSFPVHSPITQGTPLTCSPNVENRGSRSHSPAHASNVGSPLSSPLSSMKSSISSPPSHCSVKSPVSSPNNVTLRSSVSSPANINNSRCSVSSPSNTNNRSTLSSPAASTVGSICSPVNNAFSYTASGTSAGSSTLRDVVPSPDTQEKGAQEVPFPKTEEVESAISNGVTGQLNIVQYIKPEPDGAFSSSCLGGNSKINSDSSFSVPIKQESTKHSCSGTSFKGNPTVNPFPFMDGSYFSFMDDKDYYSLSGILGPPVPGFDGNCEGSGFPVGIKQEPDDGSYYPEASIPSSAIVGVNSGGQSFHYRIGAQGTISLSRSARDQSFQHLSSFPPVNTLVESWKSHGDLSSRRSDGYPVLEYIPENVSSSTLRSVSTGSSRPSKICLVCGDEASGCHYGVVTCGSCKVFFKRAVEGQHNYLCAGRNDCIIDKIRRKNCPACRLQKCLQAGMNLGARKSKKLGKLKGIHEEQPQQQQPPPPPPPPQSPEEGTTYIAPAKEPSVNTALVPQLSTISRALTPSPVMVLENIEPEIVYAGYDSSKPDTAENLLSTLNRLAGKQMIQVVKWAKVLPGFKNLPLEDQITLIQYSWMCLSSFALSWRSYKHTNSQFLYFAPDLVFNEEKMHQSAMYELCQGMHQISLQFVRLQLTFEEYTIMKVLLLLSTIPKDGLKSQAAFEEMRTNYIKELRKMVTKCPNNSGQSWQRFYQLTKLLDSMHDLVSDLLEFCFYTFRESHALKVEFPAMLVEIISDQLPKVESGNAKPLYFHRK
Description: as §1, §2, §3

CCN1c2ccc3[nH]c(=O)cc(C(F)(F)F)c3c2OC[C@H]1C [Compound 103, (3R)-4-Ethyl-2,3,4,7-tetrahydro-3-methyl-10-(trifluoromethyl)-8H-[1,4]oxazino[2,3-f]quinolin-8-one]
> 10 µM: IC50 (GR) | EC50 (ER) | IC50 (ER) | EC50 (PR) | IC50 (MR)

C[C@@H]1COc2c(ccc3[nH]c(=O)cc(C(F)(F)F)c23)N1 [Compound 101, (3R)-2,3,4,7-Tetrahydro-3-methyl-10-(trifluoromethyl)-8H-[1,4]oxazino[2,3-f]quinolin-8-one]
> 10 µM: IC50 (GR) | EC50 (ER) | IC50 (ER) | EC50 (PR) | IC50 (MR)
